According to patent publication US4481201A, “Pharmaceutical composition containing N,N^3 -di-(β-bromopropionyl)-N^1,N^2 -dispirotripiperazinium dichloride” (Vsesojuzny Nauchno-Issledovatelsky Khimoko-Farmasevtichesky …, priority 1981, dated 1984):
Where two headings read alike, the source gives them in different places.

Columns and labels:
Ienssen's sarcoma = test: Growth of graft Ienssen sarcoma in rats; type: in vivo; details: rats, 7 injections, one experiment
From the text: (§1) The antitumor activity has been studied on white rats weighing 110-130 g, as well as on white noninbred and inbred mice weighing 17-21 g with ligated tumors. The treatment is started 5-7 days transplanting of solid tumors and the following day after the transplanting of leukotic strains. Use has been made of the following transplantable strains of the tumors:
(§2) (1) rats: Ienssen's sarcoma, sarcoma 45, sarcoma M-1, sarcoma 536;
(§3) The compounds of the general formula (I), wherein X represents Cl^- (compound 1), Br^- (compound 2) are well-soluble in an isotonic solution of sodium chloride and they are administered intraperitoneally. The doses of the compounds have been calculated in mg per kg of the animal bodyweight.

sarcoma M-1 = test: Growth of graft sarcoma M-1 in rats; type: in vivo; details: rats, 85 mg/kg per os, 6 injections, one experiment
From the text: as §1, §2, §3

sarcoma 180 = test: Growth of graft sarcoma 180 in mice; type: in vivo, noninbred white mice
From the text: as §1
(2) noninbred white mice: sarcoma 180, sarcoma AK, sarcoma 37, carcinoma HK;
as §3

[1] = Toxicity on single and repeated administration to mice; type: in vivo; details: for MTD: read-out: MTD
Method: (3) acute toxicity of the compounds upon a single and repeated administration to white noninbred mice places into standard cages with 8 animals in each.
In the investigation of toxic properties of the compounds according to the present invention there has been determined the absolutely lethal dose (DL95), average lethal dose (DL50) and MTD. For compounds 1 and 2 there were determined DL95 and DL50 on healthy white mice with the body mass of 18-21 g at a single and repeated (once a day, daily for 7 days) intraperitoneal administration.

Solubility = type: physicochemical
Method: as §3
To a mixture of 3 g of N^1,N^2 -dispirotripiperazinium dichloride, 1.5 g of lithium hydroxide, 1 ml of water and 10 ml of ether a solution of 5.2 g of β-bromopropionic acid chlorid in 5 ml of ether is added under vigorous stirring and at a temperature of 5° to 10° C. The reaction mass is stirred for 2 hours at the temperature of 15° C. The residue is filtered off, dissolved in 10 ml of water; the resulting aqueous solution is poured in 100 ml of methanol.

sarcoma 536 = test: Growth of graft sarcoma 536 in rats; type: in vivo; parameters: key to tumor growth suppression class, Sarcoma 536: +++: tumor growth suppression by 95-100%; ++: tumor growth suppression by 80-95%; +: tumor growth suppression by 60-80%; tumor growth suppression by 30-60%; 0: no effect
From the text: as §1, §2, §3

leukemia La = test: Life span of mice with transplantable leukemia La; type: in vivo, inbred mice; details: mice with transplantable leukemia La
From the text: as §1
(3) inbred mice: leukemia La, leukemia L1210 and P-388.
The activity of compounds relative to leukosis has been assessed by the life span (It) of treated animals as compared to the control ones. It --index of suppression of leukosis development is calculated by the formula: [formula]

Row | SMILES | It, % tumor growth suppression index (Ienssen's sarcoma; 83 mg/kg per os (MTD)) [%] | Change in the animal body weight, test (Ienssen's sarcoma; 83 mg/kg per os) [g] | Change in the animal body weight, test (sarcoma M-1) | suppression of sarcoma 180 growth (sarcoma 180; mice, per os, at MTD (dose not given)) | MTD ([1]; mouse, in vivo, po, repeated administration, suspension per os) [mg/kg] | solubility in water (Solubility) | effect on the growth of sarcoma 536 (sarcoma 536; dose not given) | tumor growth suppression class, Sarcoma 536 (sarcoma 536; rats) | slowing of the growth of sarcoma 180 (sarcoma 180; dose not given) [%] | tumor growth suppression class, Sarcoma 180 (sarcoma 180; mice) | It, % index of suppression of leukosis development (leukemia La) [%] | Life span (leukemia La) [days] | Ik index of toxic effect cumulation ([1]; mice, intraperitoneal administration) | DL95 (absolutely lethal dose) ([1]; mice, single intraperitoneal administration) [mg/kg] | LD50 ([1]; mouse, in vivo, ip, mice, single intraperitoneal administration, read-out: DL50 (average lethal dose)) [mg/kg] | MTD ([1]; mouse, in vivo, ip, repeated intraperitoneal administration) [mg/kg]
1 | O=C(CCBr)N1CC[N+]2(CC1)CC[N+]1(CCN(C(=O)CCBr)CC1)CC2 [Compound 3] | 50 | -7 | +1 g | 35 | 83 | sparingly soluble | – | – | – | – | – | – | – | – | – | –
2 | CN(C)c1nc(NP(=O)(N2CC2)N2CC2)c2c(ncn2C)n1 [Phopurine, 2-dimethylamino-6-diethyleneimido-phosphamido-7-methylpurine, reference compound] | – | – | – | – | – | – | does not affect the growth | 0 | 36 | + (tumor growth suppression by 60-80%) | 204 | 22.5 ± 3.4 | 12 | 430 | 280 | 120
